Calls of active or inactive are those of the source.
How the values were obtained:
[1] = Intein inhibitors as potential Tuberculosis drugs, a cytotoxicity screen. [Related pubchem assays (depositor defined):AID2221, AID2223, AID434968, AID435010, AID449749, AID449750, AID489010]; format: functional
[2] = biological target: T1, Replicative DNA helicase DnaB (Mycobacterium tuberculosis, UniProt P9WMR3); experiment: DnaB intein splicing inhibitors, dose response, biochemical, cell-free fluorescence (AID 449749); format: functional
T1 sequence (P9WMR3 whole entry): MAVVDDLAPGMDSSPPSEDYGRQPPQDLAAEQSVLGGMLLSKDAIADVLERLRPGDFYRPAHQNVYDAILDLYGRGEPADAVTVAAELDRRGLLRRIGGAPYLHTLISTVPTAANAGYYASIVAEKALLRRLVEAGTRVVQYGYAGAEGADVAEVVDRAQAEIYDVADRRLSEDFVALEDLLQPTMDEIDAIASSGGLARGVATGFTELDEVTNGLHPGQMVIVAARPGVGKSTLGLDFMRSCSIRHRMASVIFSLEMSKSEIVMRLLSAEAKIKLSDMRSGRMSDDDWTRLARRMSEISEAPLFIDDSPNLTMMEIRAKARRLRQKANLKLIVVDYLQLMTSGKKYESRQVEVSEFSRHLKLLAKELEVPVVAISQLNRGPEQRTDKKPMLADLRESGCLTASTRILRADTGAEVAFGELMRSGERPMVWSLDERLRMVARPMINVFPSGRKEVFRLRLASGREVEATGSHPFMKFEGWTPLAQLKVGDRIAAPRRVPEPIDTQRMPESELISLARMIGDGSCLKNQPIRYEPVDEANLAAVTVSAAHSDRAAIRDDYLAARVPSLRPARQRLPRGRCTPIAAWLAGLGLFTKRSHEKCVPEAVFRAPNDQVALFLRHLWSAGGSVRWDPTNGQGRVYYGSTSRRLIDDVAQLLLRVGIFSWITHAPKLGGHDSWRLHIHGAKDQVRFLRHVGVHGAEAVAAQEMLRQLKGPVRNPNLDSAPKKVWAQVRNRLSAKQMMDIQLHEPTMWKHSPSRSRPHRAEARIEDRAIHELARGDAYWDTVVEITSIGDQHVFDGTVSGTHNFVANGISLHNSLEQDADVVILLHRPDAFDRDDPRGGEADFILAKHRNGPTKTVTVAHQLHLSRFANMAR

[3] = biological target: T2, Histone-lysine N-methyltransferase NSD2 (Homo sapiens, UniProt O96028); format: biochemical
T2 sequence (O96028 whole entry): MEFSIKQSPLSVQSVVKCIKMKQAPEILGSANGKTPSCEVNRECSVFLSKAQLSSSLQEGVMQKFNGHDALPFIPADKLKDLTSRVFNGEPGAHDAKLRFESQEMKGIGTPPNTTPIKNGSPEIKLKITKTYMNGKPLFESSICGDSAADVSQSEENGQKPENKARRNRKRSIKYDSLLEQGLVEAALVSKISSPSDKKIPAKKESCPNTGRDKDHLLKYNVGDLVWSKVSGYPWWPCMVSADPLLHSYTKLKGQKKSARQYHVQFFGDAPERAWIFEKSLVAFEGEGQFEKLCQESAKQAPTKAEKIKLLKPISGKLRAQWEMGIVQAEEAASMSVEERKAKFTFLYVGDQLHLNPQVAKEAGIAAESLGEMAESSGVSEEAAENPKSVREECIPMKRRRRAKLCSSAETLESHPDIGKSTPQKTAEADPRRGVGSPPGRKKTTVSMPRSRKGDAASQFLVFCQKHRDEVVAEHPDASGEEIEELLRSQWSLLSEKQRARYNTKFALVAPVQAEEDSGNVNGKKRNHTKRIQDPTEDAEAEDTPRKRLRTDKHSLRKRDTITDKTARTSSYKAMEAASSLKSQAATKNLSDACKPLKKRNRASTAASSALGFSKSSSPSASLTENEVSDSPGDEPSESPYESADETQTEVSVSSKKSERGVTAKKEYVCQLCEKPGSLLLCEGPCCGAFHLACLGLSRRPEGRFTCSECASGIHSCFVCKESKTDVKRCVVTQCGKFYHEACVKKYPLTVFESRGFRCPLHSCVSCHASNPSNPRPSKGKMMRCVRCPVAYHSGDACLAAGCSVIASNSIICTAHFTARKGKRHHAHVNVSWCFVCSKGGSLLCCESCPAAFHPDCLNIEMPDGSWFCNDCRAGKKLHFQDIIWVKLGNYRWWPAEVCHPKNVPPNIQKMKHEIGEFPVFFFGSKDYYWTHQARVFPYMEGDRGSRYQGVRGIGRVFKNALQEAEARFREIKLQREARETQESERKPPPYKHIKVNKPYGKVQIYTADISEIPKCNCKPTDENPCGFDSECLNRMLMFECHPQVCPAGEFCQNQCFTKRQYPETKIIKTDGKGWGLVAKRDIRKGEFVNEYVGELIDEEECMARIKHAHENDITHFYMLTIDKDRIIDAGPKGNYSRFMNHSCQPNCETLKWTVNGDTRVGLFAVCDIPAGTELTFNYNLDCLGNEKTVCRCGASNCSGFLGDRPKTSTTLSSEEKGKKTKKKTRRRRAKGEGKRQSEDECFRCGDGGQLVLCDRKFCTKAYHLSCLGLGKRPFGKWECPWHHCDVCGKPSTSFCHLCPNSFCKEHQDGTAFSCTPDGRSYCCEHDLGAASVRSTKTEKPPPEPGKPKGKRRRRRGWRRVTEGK

[4] = NIH3T3 cell viability loss – ATP luminescence, mouse fibroblasts, counter-screen, dose response (AID 2010); format: functional, cell-based;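 also: cells exposed to compound for about 90 hours before reading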
[5] = Counterscreen for AddAB inhibitors: absorbance-based bacterial cell-based high throughput dose response assay for inhibitors of bacterial viability. [Related pubchem assays (depositor defined):AID435030, AID449728, AID449731, AID488942, AID488955, AID488956]; format: functional
[6] = biological target: Protein kinase C theta type (Homo sapiens, UniProt Q04759); experiment: Navigating the Kinome. Panel member name: PRKCQ; format: functional
Chain of Protein kinase C theta type (Q04759 whole entry): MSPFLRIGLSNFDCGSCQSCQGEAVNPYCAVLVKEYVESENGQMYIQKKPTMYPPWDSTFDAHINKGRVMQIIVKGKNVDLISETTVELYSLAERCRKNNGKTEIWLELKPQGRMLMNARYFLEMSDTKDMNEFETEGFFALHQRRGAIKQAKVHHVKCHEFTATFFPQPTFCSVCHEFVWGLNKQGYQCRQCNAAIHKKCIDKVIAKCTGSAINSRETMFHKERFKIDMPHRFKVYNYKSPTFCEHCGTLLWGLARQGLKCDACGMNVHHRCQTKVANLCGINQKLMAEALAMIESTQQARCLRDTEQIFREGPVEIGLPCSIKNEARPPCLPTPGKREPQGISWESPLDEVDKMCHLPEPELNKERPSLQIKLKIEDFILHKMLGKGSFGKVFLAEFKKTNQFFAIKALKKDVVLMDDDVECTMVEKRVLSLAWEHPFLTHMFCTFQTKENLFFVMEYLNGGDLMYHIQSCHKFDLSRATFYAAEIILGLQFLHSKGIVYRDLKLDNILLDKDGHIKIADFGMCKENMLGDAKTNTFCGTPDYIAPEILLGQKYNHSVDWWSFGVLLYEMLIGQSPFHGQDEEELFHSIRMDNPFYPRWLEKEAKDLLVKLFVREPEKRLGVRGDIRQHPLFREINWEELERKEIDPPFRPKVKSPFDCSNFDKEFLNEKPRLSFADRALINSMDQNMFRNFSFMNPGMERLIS

[7] = biological target: Ribosomal protein S6 kinase alpha-3 (Homo sapiens, UniProt P51812); format: functional;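 also: measured within a kinome-wide profiling panel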
Chain of Ribosomal protein S6 kinase alpha-3 (P51812 whole entry): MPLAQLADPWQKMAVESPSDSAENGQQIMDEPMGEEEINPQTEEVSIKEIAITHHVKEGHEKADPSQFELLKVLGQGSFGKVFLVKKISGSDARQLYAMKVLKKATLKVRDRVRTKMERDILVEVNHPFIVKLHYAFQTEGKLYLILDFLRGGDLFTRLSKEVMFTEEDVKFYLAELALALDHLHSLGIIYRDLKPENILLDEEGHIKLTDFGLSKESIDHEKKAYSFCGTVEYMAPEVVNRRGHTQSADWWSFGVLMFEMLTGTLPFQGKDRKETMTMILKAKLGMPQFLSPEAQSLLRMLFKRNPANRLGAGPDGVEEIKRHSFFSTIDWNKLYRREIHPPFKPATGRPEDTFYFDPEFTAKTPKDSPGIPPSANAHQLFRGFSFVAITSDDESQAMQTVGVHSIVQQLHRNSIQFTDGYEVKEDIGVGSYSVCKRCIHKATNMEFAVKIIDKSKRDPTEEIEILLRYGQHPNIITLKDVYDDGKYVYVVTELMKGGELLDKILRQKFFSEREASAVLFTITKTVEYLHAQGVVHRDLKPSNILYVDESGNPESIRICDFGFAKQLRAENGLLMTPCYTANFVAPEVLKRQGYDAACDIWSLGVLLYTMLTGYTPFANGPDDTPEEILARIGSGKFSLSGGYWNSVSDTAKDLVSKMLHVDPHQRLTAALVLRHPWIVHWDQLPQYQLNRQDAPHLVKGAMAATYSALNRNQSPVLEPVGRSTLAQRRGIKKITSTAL

[8] = biological target: Serine/threonine-protein kinase TBK1 (Homo sapiens, UniProt Q9UHD2); experiment: Navigating the Kinome. Panel member name: TBK1; format: functional
Chain of Serine/threonine-protein kinase TBK1 (Q9UHD2 whole entry): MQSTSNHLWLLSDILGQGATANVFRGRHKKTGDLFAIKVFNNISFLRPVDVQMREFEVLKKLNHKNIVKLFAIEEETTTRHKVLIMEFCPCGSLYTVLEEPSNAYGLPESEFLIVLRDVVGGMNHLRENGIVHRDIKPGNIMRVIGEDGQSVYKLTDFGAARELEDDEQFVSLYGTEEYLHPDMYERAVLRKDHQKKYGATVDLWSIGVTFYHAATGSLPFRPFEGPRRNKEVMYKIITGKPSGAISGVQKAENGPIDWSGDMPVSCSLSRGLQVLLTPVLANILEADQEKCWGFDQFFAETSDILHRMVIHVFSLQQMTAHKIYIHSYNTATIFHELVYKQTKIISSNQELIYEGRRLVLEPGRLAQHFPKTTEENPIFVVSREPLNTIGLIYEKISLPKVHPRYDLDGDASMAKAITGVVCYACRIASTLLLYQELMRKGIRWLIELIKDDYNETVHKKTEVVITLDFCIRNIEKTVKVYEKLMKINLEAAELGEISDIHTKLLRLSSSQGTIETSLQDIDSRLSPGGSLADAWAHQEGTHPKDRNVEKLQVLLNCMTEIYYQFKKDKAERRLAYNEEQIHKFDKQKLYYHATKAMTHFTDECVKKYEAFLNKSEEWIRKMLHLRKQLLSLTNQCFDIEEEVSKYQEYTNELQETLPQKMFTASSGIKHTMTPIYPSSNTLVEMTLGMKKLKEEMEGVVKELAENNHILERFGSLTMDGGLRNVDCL

[9] = biological target: ALK tyrosine kinase receptor (Homo sapiens, UniProt Q9UM73); format: functional;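 also: ALK tested as one member of a kinase panel screen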
Chain of ALK tyrosine kinase receptor (Q9UM73 whole entry): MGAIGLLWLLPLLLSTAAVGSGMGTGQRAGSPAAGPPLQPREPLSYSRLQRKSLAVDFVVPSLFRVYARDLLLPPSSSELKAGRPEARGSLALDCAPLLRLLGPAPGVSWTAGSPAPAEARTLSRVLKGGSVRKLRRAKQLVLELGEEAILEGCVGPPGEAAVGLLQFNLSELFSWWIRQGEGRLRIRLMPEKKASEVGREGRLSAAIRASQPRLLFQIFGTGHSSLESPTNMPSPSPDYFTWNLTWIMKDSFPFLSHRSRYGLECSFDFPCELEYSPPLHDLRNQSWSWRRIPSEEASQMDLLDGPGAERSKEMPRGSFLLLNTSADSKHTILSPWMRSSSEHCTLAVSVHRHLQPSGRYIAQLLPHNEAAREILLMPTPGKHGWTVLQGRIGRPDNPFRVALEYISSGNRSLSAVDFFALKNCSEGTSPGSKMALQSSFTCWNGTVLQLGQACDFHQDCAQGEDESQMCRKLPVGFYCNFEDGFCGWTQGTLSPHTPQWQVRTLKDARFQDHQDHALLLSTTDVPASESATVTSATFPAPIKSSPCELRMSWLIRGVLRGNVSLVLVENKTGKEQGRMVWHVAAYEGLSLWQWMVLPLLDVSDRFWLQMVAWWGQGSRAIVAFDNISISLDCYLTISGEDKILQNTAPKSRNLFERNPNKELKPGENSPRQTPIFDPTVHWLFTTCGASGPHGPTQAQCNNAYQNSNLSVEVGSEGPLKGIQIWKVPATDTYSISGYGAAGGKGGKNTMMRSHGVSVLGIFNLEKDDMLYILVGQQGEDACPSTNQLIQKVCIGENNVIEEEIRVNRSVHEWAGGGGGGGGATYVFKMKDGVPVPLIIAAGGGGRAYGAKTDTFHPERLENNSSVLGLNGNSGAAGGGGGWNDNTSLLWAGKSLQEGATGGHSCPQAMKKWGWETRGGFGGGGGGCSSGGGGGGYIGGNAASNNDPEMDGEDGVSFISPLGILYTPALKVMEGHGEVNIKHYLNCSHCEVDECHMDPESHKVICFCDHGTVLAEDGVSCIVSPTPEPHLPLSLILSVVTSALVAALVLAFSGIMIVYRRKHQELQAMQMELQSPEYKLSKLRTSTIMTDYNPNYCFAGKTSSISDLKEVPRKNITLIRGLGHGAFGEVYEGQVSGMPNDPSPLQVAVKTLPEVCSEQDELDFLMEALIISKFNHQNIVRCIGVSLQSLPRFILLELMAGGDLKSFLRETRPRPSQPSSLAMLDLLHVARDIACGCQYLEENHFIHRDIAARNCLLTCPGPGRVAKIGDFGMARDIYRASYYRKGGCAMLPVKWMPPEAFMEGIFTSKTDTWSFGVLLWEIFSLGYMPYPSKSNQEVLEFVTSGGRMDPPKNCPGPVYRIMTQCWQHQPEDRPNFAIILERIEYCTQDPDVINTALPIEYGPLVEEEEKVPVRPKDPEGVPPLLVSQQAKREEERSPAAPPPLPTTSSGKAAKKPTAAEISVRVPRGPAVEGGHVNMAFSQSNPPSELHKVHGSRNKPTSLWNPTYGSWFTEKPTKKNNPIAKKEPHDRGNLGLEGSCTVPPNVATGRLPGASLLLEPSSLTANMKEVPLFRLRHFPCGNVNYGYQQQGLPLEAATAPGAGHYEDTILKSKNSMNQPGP

[10] = biological target: Serine/threonine-protein kinase pim-1 (Homo sapiens, UniProt P11309); format: functional
Chain of Serine/threonine-protein kinase pim-1 (P11309 whole entry): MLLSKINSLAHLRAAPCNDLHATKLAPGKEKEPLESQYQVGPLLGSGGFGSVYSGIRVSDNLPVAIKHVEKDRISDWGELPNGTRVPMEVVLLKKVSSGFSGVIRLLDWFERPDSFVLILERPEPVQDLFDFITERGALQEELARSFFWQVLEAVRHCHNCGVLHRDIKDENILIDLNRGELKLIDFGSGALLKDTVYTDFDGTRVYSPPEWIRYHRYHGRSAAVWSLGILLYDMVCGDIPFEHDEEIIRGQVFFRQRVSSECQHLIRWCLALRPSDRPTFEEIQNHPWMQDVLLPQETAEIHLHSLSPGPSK

[11] = biological target: Mitogen-activated protein kinase kinase kinase kinase 2 (Homo sapiens, UniProt Q12851); format: functional;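 also: measured as one member of a kinome-wide kinase panel, with MAP4K2 as the panel entry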
[12] = biological target: Receptor-type tyrosine-protein kinase FLT3 (Homo sapiens, UniProt P36888); format: functional;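 also: FLT3 was tested as one member of a kinome-wide kinase panel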
Chain of Receptor-type tyrosine-protein kinase FLT3 (P36888 whole entry): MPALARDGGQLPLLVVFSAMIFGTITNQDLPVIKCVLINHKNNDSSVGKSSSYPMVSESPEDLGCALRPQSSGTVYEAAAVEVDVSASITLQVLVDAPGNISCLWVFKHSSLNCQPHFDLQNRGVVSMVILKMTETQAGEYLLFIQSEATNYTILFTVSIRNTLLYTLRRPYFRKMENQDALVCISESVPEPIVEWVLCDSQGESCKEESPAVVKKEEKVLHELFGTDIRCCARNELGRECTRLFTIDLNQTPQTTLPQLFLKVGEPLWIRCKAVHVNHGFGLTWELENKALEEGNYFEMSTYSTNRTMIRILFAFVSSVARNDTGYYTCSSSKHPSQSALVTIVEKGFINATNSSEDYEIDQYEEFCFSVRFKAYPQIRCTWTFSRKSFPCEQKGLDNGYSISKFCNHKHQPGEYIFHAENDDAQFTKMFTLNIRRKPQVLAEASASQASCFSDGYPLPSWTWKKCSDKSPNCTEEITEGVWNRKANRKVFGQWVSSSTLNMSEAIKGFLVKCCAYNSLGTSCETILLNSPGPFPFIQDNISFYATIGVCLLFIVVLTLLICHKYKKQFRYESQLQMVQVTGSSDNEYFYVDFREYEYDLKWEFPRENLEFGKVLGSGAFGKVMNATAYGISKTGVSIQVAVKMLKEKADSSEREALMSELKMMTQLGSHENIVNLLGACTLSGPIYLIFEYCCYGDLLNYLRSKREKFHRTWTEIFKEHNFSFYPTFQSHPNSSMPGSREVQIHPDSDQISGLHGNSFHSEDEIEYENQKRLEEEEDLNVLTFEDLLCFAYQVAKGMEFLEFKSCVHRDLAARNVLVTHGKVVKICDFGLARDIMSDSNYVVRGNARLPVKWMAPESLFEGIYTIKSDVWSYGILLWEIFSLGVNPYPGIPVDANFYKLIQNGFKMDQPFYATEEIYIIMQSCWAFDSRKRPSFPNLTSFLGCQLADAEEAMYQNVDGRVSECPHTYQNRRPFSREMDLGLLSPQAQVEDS

[13] = biological target: Dual specificity tyrosine-phosphorylation-regulated kinase 1A (Homo sapiens, UniProt Q13627); format: functional;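 also: measured against DYRK1A as one member of a broad kinome profiling panel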
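For CC50 in this document: cells exposed to compound for 72 hours before luminescence readout.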

O=C(NC1=C(NC2CCS(=O)(=O)C2)C(=O)c2ccccc2C1=O)c1ccccc1 (stereo not drawn)
CC50 [1]: 5150 nM (active)
AC50 [2]: 816 nM (active)
AC50 [3]: > 20000 nM (inactive)

CCCC(=O)NC(c1ccc(N(C)C)cc1)c1ccc2cccnc2c1O (stereo not drawn)
EC50 [4]: 729 nM (active)
IC50 [5]: > 119000 nM (inactive)

O=C1NC(=O)C(c2c[nH]c3ccccc23)=C1c1nc(N2CCNCC2)nc2ccccc12
Ki [6]: 0.316 nM (active)
Ki [7]: 50.1 nM (active)
Ki [8]: > 3160 nM (inactive)
Ki [9]: 3980 nM (active)
Ki [10]: 100 nM (active)
Ki [11]: 1000 nM (active)
Ki [12]: > 3160 nM (inactive)
Ki [13]: > 2000 nM (inactive)
